Row | Structure (SMILES) | melting point [°C]
1 | COc1ccccc1N1CCN([C@H]2CC[C@H](c3ccc(-c4ccccc4)cc3)CC2)CC1 | 220 to 225
2 | CCOC(=O)c1cc2c(C)ccc3c2n1CCO3 | 101 to 102
3 | Cc1oc(-c2ccccc2)nc1CCOc1ccc(CC(Nc2ccccc2C(=O)c2cccc(CO)c2)C(=O)O)cc1 (stereo not drawn) | 87 to 90
4 | CCCCNCC(O)COc1ccc(-c2nc(C(F)(F)F)c[nH]2)cc1 (stereo not drawn) | 151 to 154
5 | CCOC(=O)c1cnc2c(C(F)(F)F)cc(-c3ccc(C(F)(F)F)cc3)cn12 | 132
6 | CCOC(=O)Nc1c(F)cc(Cl)c2nc(C(C)(C)C)oc12 | 127 to 129
7 | CC(C)Cc1nc2ccc(Cl)cc2c(-c2ccccc2)c1CN | 114 to 116
8 | CC1CN(C)CCC1(O)c1cc2ccccc2o1 (stereo not drawn) | 128 to 130
9 | CN(C)C1CCN(c2cccc(-c3cnc4[nH]cc(C(=O)C(C)(C)C)c4n3)c2)C1 (stereo not drawn) | 204 to 206
10 | O=c1c(C2=Nc3ccccc3S(=O)(=O)N2)c(O)c2ccccc2n1CC1CCCC1 | 255 to 256
11 | N#Cc1cccc(N(C(=O)NC2CCN(Cc3ccccc3)CC2)C2CCCC2)c1 | 165 to 166
12 | O=c1ccc2c([nH]1)C(Nc1ccccc1)CCC2 (stereo not drawn) | 225
13 | CN1CCC(C2(O)c3sccc3CCn3ccnc32)CC1 (stereo not drawn) | 177
14 | CC(O)(c1ccc(Oc2ccccc2)cc1)C1SCSCS1 (stereo not drawn) | 70 to 71
15 | Brc1ccc2nc(-c3ccccc3)nn2c1 | 146
16 | Cc1nc2ccc3c(c2o1)C(CCNC(=O)c1ccccc1)CC3 (stereo not drawn) | 73 to 76
17 | CC(C)(C)OC(=O)CON=C1CC(=NOCC(=O)OC(C)(C)C)c2ccccc2-c2ccccc21 | 105 to 107
18 | COC(=O)Nc1cnc2ccc(Sc3ccccc3)cn12 | 211 to 215
19 | CCc1nc2c(C)c(N)c(C)nc2[nH]1 | 153 to 155
20 | CCCCCOc1ccc(-c2ncc(C#N)c(Cl)n2)cc1 | 140 to 142
21 | Cc1c(Br)c(=O)n(C2CCCC2)c2nc(Nc3ccccn3)ncc12 | 267 to 268
22 | CC(=O)NC(Cc1ccc(Cl)c(Cl)c1)C(=O)CCc1cc(C(F)(F)F)cc(C(F)(F)F)c1 (stereo not drawn) | 124 to 126
23 | Nc1cccc(Nc2ncnc3[nH]cc(C(=O)c4ccccc4)c23)n1 | > 300
24 | Brc1c(NC2=NCCN2)ccc2c1NCCN2 | 218 to 220
25 | CC(=O)OC(C)c1cccc2cc(C(=O)CBr)oc12 (stereo not drawn) | 86 to 88

Row | Structure (SMILES) | melting point [°C]
26 | CCCCCCCCCCCCc1nnn(C(CCCCCCCCCCCC)C(=O)Nc2c(OC)cc(OC)cc2OC)n1 (stereo not drawn) | 138 to 140
27 | Cc1cc(OCc2sc(-c3ccc(C(F)(F)F)cc3)nc2C)ccc1Cc1nn[nH]n1 | 165
28 | COC(=O)C1=C(C)NC(C)=C(C(=O)OC)C1c1cc(Br)ccc1OCC(=O)NCCO[N+](=O)[O-] | 166 to 167
29 | CCCN(CCC)C1CCc2cccc(-c3ccc4ccccc4n3)c2C1 (stereo not drawn) | 82
30 | Cc1cscc1-c1cccc2c1ccn2-c1ccnc(NC2CCC(C(=O)N3CCC(O)CC3)CC2)n1 (stereo not drawn) | 168 to 188
31 | COc1cc(/C=C/S(=O)(=O)CS(=O)(=O)/C=C/c2cc(OC)c(OC)c(OC)c2)cc(OC)c1OC | 127 to 129
32 | O=C(O)CNCC(=O)NC[C@@H]1CC(c2ccc(-c3ccc(N4C[C@H](Cn5ccnn5)OC4=O)cc3F)cn2)=NO1 | 200 to 210
33 | Cc1nc(N2CCN(CC3CC3)C2=O)sc1C(=O)NCc1ccncn1 | 188 to 191
34 | CC(NC(=S)NCC(COC(=O)C(C)(C)C)Cc1ccc(C(C)(C)C)cc1)c1ccc(NS(C)(=O)=O)c(F)c1 (stereo not drawn) | 78
35 | COc1cc2c(=O)ccn(C)c2cc1OC | 169 to 173
36 | C=CCONC(CCC)=C1C(=O)CC(CCC2OCCCO2)CC1=O (stereo not drawn) | 50 to 52
37 | CCCN(c1ccncc1)N1C(=O)Cc2ccccc21 | 140 to 143
38 | CC1(C(=O)O)CCC2(C)CCC3(C)C(=CCC4C5(C)CCC(O)C(C)(C)C5CCC43C)C2C1 (stereo not drawn) | 329 to 331
39 | NS(=O)(=O)c1ccc(Cl)c(NC(=O)c2cnn3c(C(F)(F)F)cc(-c4ccc(C(F)(F)F)cc4)nc23)c1 | 300
40 | Nc1nc2ccccc2c2c1ncn2CCCCNC(=O)c1ccc(Oc2ccccc2)cc1 | 90.5 to 91.5
41 | CC(=O)c1ccc(-c2ccc(Br)cc2F)cc1 | 94.5 to 95.5
42 | CCCCCCCCCCCCCCCC(=O)OCC1(O)COC(O)(COC(=O)CCCCCCCCCCCCCCC)CO1 (stereo not drawn) | 95.2
43 | COC(=O)C(CN(c1ccccc1)c1ccccn1)N(C(=O)OC(C)(C)C)C(=O)OC(C)(C)C (stereo not drawn) | 103
44 | O=[N+]([O-])c1ccc(C(O)CSCc2ccncc2)cc1 (stereo not drawn) | 135 to 137
45 | Cc1csc(C(=O)OC(C)C)c1N | 40
46 | CCCCCCCCC(=O)N1C(=O)CCC1=O | 59 to 60
47 | CS(=O)(=O)OCC1CSC2=C(O1)c1ccccc1C(=O)C2=O (stereo not drawn) | 230 to 232
48 | COC1(NC(=O)OCc2ccccc2)CNC1=O (stereo not drawn) | 112 to 114
49 | COc1cc2c(cc1Br)CC(=O)NN=C2c1ccc([N+](=O)[O-])cc1 | 245 to 256
50 | CN1CCN(c2ccc(CCCC(=O)N3CCC(c4ccc(Cl)cc4)CC3)cc2)CC1 | 119 to 120

Row | Structure (SMILES) | melting point [°C]
51 | NC(=O)c1cc(OCCCN2CCN(c3cccc4sccc34)CC2)c2ccccc2n1 | 153 to 154
52 | CCCCCCCCON1C(C)(C)CC(NC(=O)CCc2cc(-n3nc4ccccc4n3)c(O)c(C(C)(C)C)c2)CC1(C)C | 153 to 159
53 | COc1ccc2c(c1)C(=O)C(Cc1ccccc1)CO2 (stereo not drawn) | 71 to 72
54 | Cc1cc(COc2c(Cl)cc(CCl)cc2Cl)oc(=O)c1 | 136
55 | Cc1ccc(C=CC(C)N(O)C(N)=O)o1 (stereo not drawn) | 122 to 124
56 | CNc1nnc(-c2ccc3ncn(-c4cccc(OC(F)(F)F)c4)c3c2)o1 | 226 to 227
57 | CN(C)CCOc1cc2c(Nc3ccc(Cl)cc3F)c(C#N)cnc2cn1 | 150 to 152
58 | CC(C)S(=O)(=O)C(C#N)=C(Nc1cc(C(F)(F)F)cc(C(F)(F)F)c1)NC1CCCC1 | 172 to 173
59 | CCOC(=O)Cc1ccc(-c2nc(COc3ccc(COc4nn(-c5ccccc5)cc4C=O)cc3OC)c(C)o2)cc1 | 157 to 158
60 | FC(F)(F)c1cc2c(cc1Cl)C(Cl)Cc1ccccc1S2 (stereo not drawn) | 100 to 102
61 | CSc1nccc(Oc2ccc(NC(=O)c3cc(F)cc(N4CCOCC4)c3)c3ccccc23)n1 | 189 to 190
62 | CCCCC(=O)N(Cc1ccc(-c2ccccc2-c2nnnn2C(c2ccccc2)(c2ccccc2)c2ccccc2)cc1)C(C(=O)O)C(C)C (stereo not drawn) | 170
63 | CSc1nc(Cl)c(-c2c(F)cccc2Cl)c(NC(C)C)n1 | 94 to 98
64 | Cc1ccc(-c2nc(N)nc(N)n2)cn1 | > 260
65 | CC(=O)C(Cl)=NNc1ccc(Cl)cc1 | 168 to 171
66 | COC(=O)c1ccc(N2CCC(N(C)Cc3ccccc3)CC2)cc1 | 103 to 104
67 | CC#CCN=C(NC#N)NCCSCc1[nH]cnc1C | 128 to 130
68 | Cn1c(=O)c2ccc(N)nc2n(C)c1=O | 290 to 295
69 | Cc1cn(C2CCc3ccccc3C2)c(=S)n1Cc1ccc(C(=O)O)cc1 (stereo not drawn) | 181 to 182
70 | COc1ccc(C2CC(c3ccc(OC)c(OC)c3)=NN2c2ccc(C(=O)O)cc2)cc1 (stereo not drawn) | 141
71 | COC(=O)C1CCC2(C3(C)OCCO3)CC1C(=O)O2 (stereo not drawn) | 69 to 71
72 | CC(C)c1cccc(F)c1NC(=S)N/N=C/c1ccc(-c2ncn(-c3ccc(OC(F)(F)F)cc3)n2)cc1 | 210 to 212
73 | CC12CCC3C(CC(O)C4(O)CC(O)CCC34C)C1CCC2=O (stereo not drawn) | 304 to 306
74 | O=C(O)c1ccc(OCCCOCCCCCCBr)cc1 | 72 to 75
75 | COc1ccccc1Sc1c(NS(=O)(=O)c2ccc(C(C)(C)C)cc2)nc(CO)nc1OC | 152

Row | Structure (SMILES) | melting point [°C]
76 | CC(=O)OCC1=C(C(=O)OC(C)(C)C)N2C(=O)C(NC(=O)CC3=CSCCS3)C2SC1 (stereo not drawn) | 80
77 | NC(=O)c1nc(-c2ccccc2)n2c1CN=C(c1ccccc1F)c1cc(Cl)ccc1-2 | 260 to 262
78 | COc1ccc(-c2ocnc2-c2cc(OC)c(N)c(OC)c2)cc1O | 126 to 130
79 | CC(C)Oc1cc(-n2c(Cl)nc(C(F)(F)F)cc2=O)c(F)cc1Cl | 88 to 90
80 | O=C(O)CCc1ccnc(-c2nc(=O)c3ccc(Cl)cc3s2)c1 | 263 to 264
81 | N#Cc1c(N2CCCCC2)cc(-c2ccccc2)c2c1C(=O)c1ccccc1-2 | 220 to 222
82 | O=C(CC1=CC(OC2CCCCO2)CC1=O)Oc1ccc2ccccc2c1 (stereo not drawn) | 75
83 | O=C1Nc2cc(CN3CCC(c4ccccc4)CC3)ccc2OC1F (stereo not drawn) | 217 to 221
84 | COc1ncccc1NC(=NC#N)NC(NC(=O)c1cc(Cl)cc(Cl)c1)C(C)(Cl)Cl (stereo not drawn) | 149 to 150
85 | C[C@@H](NC(=O)c1cnn(-c2ccc(C(F)(F)F)cc2)c1C(F)(F)F)[C@](O)(Cn1cncn1)c1ccc(F)cc1F | 141 to 143
86 | CC(=O)Nc1cnc(-c2ccccc2)nc1N | 224 to 225
87 | CCOC(=O)c1[nH]c2cc(-c3ccccc3)ccc2c1N | 181 to 183
88 | CCCc1nc2c(N)nc3cc(OCC(=O)c4ccccc4)ccc3c2n1CC(C)C | 178 to 180
89 | CCOC(=O)Oc1ccc(/C=C(\C)c2ccc3c(c2)SC(C)(C)S3)cc1 | 93 to 94
90 | N#CC(Cl)Cc1ccc(C(=O)O)cc1 (stereo not drawn) | 157
91 | COC(=O)CCCOc1cc([N+](=O)[O-])c(C(C)NC(=O)C(F)(F)F)cc1OC (stereo not drawn) | 156 to 157
92 | CS(=O)(=O)Nc1nc(CN2CCC(c3c[nH]c4ccccc34)CC2)cs1 | 215 to 217
93 | CCOC(=O)c1cc(C=O)c2ccccn2c1=O | 179 to 181
94 | CCOC(=O)C(Cc1ccc(O)cc1)Oc1ccc(Cl)cc1 (stereo not drawn) | 90 to 93
95 | Cc1ccc(C(=O)N2CC3CC2CN3c2nc(-c3ccncc3)cc(=O)n2C)cc1 (stereo not drawn) | 118 to 120
96 | CCOC(=O)C(C)c1ccc2cc(O)ccc2c1 (stereo not drawn) | 93 to 98
97 | COc1nc(N)nn1C | 177 to 180
98 | CC(=O)Nc1nc2c(s1)-c1c(cnn1-c1ccc(C(=O)N3CCC(NC(=O)Cc4ccccc4)CC3)cc1)CC2 | 271 to 272

Source: a melting point compilation (Tetko et al.; mined from patent text by program, amines drawn as free bases though some values may be those of a salt)
